Experimental data taken from publication PMC12371036 (Nature Communications, 2025).

T1: UVR8^D96N/D107N (constitutive monomer) (Arabidopsis thaliana, UniProt Q9FN03, D96N/D107N)
T1 sequence (Q9FN03 1-440 D96N/D107N): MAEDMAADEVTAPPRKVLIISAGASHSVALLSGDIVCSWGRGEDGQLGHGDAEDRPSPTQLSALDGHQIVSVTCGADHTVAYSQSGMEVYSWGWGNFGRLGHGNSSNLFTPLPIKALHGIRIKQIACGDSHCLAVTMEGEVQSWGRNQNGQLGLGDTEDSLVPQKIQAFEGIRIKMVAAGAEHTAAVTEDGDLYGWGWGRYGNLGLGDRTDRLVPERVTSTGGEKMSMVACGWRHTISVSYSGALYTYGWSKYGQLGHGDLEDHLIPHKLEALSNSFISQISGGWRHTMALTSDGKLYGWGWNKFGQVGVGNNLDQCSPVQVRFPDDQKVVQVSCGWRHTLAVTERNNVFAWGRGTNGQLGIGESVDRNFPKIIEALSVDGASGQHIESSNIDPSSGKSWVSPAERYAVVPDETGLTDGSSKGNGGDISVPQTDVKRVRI

T2: His-SUMO-UVR8 (wild-type UV … LOCUS8) (Arabidopsis thaliana), Q9FN03
T2 chain: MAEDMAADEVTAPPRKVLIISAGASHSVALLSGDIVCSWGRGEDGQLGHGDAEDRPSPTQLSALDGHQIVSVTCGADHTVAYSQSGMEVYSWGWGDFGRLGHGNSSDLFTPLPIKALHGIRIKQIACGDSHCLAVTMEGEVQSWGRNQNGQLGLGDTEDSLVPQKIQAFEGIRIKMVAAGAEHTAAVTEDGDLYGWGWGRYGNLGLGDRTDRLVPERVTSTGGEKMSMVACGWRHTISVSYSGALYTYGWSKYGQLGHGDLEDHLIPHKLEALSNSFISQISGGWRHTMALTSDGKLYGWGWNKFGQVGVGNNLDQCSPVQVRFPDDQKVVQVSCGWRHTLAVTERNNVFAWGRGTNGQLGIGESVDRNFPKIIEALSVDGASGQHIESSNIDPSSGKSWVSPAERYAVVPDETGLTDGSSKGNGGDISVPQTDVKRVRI

B1: His-SUMO-UVR8 (wild-type UV … LOCUS8), Q9FN03 1-440 (natural protein)
chain: MAEDMAADEVTAPPRKVLIISAGASHSVALLSGDIVCSWGRGEDGQLGHGDAEDRPSPTQLSALDGHQIVSVTCGADHTVAYSQSGMEVYSWGWGDFGRLGHGNSSDLFTPLPIKALHGIRIKQIACGDSHCLAVTMEGEVQSWGRNQNGQLGLGDTEDSLVPQKIQAFEGIRIKMVAAGAEHTAAVTEDGDLYGWGWGRYGNLGLGDRTDRLVPERVTSTGGEKMSMVACGWRHTISVSYSGALYTYGWSKYGQLGHGDLEDHLIPHKLEALSNSFISQISGGWRHTMALTSDGKLYGWGWNKFGQVGVGNNLDQCSPVQVRFPDDQKVVQVSCGWRHTLAVTERNNVFAWGRGTNGQLGIGESVDRNFPKIIEALSVDGASGQHIESSNIDPSSGKSWVSPAERYAVVPDETGLTDGSSKGNGGDISVPQTDVKRVRI

Columns and labels:
[1] = molecular target: UVR8 (UV RESISTANCE LOCUS8) (Arabidopsis thaliana, UniProt Q9FN03); assay: MST; format: binding
[2] = molecular target: T1, UVR8^D96N/D107N (constitutive monomer); assay: nanoDSF Tm increase with purified recombinant protein; format: binding
[3] = molecular target: T2, His-SUMO-UVR8 (wild-type UV … LOCUS8) …; assay: SEC; conditions: remark: other sources report otherwise

| Molecule | Kd [1] [µM] | nanoDSF Tm increase with purified recombinant protein [2] | stoichiometry N [3] |
| --- | --- | --- | --- |
| O=C(/C=C/c1ccc(O)cc1)c1c(O)cc(O)cc1O [NGC, naringenin chalcone] | ~12 | significant increase in Tm was observed when NGC was incubated with the three monomeric forms |  |
| B1 |  |  | 2 |
